Publication PMC8177814 (Molecular pharmaceutics, 2020)
Like-named read-outs stand apart in the source and are kept apart here.

Key:
BCRP (ABCG2) [1] = target: T1, BCRP (ABCG2) (Homo sapiens, UniProt Q9UNQ0); details: 30 min
T1 sequence (Q9UNQ0 1-655): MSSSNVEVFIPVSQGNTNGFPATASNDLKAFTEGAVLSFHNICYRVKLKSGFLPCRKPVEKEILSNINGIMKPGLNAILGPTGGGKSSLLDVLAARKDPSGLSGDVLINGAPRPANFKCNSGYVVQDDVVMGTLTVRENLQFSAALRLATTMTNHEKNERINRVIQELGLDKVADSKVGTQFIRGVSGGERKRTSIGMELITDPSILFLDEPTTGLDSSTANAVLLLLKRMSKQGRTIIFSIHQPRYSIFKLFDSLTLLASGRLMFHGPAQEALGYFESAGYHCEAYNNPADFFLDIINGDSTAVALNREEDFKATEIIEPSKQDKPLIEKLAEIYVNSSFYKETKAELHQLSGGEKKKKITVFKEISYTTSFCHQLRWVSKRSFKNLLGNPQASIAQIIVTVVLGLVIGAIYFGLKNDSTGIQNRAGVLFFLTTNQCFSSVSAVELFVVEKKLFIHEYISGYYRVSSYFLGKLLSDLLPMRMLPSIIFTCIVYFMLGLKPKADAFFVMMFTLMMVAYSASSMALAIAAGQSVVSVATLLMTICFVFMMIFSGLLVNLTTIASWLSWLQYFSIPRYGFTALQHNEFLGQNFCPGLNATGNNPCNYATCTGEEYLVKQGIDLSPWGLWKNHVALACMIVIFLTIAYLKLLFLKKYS

BCRP = details: previous study; cited from earlier work
human BCRP [2] = target: T2, human BCRP (Homo sapiens, UniProt Q9UNQ0); assay: BCRP vesicular transport assay
T2 sequence (Q9UNQ0 1-655): T1 sequence (Q9UNQ0 1-655)

human BCRP [3] = target: T2, human BCRP
BCRP (ABCG2) [4] = target: T1, BCRP (ABCG2); assay: 3H-oxypurinol accumulation assay in BCRP-overexpressing HEK293 cells; details: excipients at concentrations similar to vesicle screen; 30 min

CCCCC(CC)COC(=O)CC(C(=O)OCC(CC)CCCC)S(=O)(=O)O (stereo not shown) [Docusate sodium]
increase of BCRP-mediated 3H-oxypurinol accumulation in BCRP-overexpressing HEK293 cells (BCRP (ABCG2) [1]): 26.4%

CCN(Cc1cccc(S(=O)(=O)[O-])c1)c1ccc(C(=C2C=CC(=[N+](CC)Cc3cccc(S(=O)(=O)[O-])c3)C=C2)c2ccccc2S(=O)(=O)[O-])cc1.[Na+].[Na+] [FD&C Blue No. 1]
inhibition of BCRP-mediated Lucifer yellow uptake in vesicle assays (BCRP): did not inhibit
inhibition of BCRP-mediated 3H-CCK8 uptake in vesicles (in words) (human BCRP [2]; screening concentration, inhibitor = more than 50% inhibition): inhibited

CCN(CC)c1ccc2c(-c3ccccc3C(=O)O)c3ccc(=[N+](CC)CC)cc-3oc2c1 [Rhodamine B]
increase of BCRP-mediated 3H-oxypurinol accumulation in BCRP-overexpressing HEK293 cells (BCRP (ABCG2) [1]): more than 50%

O=C1OC(c2ccc(O)c(S(=O)(=O)O)c2)(c2ccc(O)c(S(=O)(=O)O)c2)c2c(Br)c(Br)c(Br)c(Br)c21 [bromosulfophthalein, reference compound]
3H-CCK8 uptake in human BCRP membrane vesicles (human BCRP [2]; 5 mM ATP and 200 μM BSP, 37 °C, 5 min (ATP alone 1.88, AMP 0.58)): 0.44 pmol/mg/min

COc1cc(/C=C/C(=O)CC(=O)/C=C/c2ccc(O)c(OC)c2)ccc1O [curcumin, reference compound]
(EV + I)/(EV – I), nonspecific effect on cell membranes (BCRP (ABCG2) [1]; 100 μM): 0.571
normalized oxypurinol accumulation ((BCRP + I)/(BCRP – I))/((EV + I)/(EV – I)) (BCRP (ABCG2) [1]; 100 μM): 3.7

COc1ccc(CCC(=O)c2c(O)cc(O[C@@H]3O[C@H](CO)[C@@H](O)[C@H](O)[C@H]3O[C@@H]3O[C@@H](C)[C@H](O)[C@@H](O)[C@H]3O)cc2O)cc1O [neohesperidin DC]
inhibition of BCRP-mediated Lucifer yellow uptake in vesicle assays (BCRP): did inhibit
inhibition of BCRP-mediated 3H-CCK8 uptake in vesicles (in words) (human BCRP [3]): did not inhibit

D&C Brown No. 1
increase of BCRP-mediated 3H-oxypurinol accumulation in BCRP-overexpressing HEK293 cells (BCRP (ABCG2) [4]): 26.8%
